Literature values as cited in patent US12370144B2, “Centanafadine pharmaceutical formulations, and methods of making and using same” (OTSUKA PHARMACEUTICAL CO., LTD., priority 2021, dated 2025).

How the values were obtained:
[1] = not told
[2] = target: serotonin reuptake transporter (SERT) (Homo sapiens, UniProt P31645); details: fraction of the potency towards NET
[3] = target: dopamine reuptake transporter (DAT) (Homo sapiens, UniProt Q01959); details: fraction of the potency towards NET
[4] = target: norepinephrine reuptake transporter (NET) (Homo sapiens, UniProt P23975); details: triple reuptake inhibitor, rank of potency
Chain of norepinephrine reuptake transporter (NET) (P23975 whole entry): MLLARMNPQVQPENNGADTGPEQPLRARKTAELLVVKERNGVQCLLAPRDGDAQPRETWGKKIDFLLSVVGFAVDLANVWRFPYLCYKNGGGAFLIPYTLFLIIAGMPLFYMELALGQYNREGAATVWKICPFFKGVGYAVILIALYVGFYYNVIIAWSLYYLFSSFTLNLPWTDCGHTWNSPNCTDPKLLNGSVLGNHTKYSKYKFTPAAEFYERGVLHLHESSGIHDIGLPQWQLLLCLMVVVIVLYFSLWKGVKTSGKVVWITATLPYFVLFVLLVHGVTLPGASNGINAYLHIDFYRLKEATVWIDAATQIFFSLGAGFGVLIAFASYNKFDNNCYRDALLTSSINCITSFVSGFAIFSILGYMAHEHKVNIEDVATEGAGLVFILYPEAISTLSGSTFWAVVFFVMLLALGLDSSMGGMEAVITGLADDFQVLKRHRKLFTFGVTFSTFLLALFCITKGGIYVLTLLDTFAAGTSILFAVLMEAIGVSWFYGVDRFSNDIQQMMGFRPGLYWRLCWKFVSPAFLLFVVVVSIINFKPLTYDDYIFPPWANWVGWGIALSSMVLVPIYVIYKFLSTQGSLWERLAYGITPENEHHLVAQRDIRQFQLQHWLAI

Chain of serotonin reuptake transporter (SERT) (P31645 whole entry, species assumed): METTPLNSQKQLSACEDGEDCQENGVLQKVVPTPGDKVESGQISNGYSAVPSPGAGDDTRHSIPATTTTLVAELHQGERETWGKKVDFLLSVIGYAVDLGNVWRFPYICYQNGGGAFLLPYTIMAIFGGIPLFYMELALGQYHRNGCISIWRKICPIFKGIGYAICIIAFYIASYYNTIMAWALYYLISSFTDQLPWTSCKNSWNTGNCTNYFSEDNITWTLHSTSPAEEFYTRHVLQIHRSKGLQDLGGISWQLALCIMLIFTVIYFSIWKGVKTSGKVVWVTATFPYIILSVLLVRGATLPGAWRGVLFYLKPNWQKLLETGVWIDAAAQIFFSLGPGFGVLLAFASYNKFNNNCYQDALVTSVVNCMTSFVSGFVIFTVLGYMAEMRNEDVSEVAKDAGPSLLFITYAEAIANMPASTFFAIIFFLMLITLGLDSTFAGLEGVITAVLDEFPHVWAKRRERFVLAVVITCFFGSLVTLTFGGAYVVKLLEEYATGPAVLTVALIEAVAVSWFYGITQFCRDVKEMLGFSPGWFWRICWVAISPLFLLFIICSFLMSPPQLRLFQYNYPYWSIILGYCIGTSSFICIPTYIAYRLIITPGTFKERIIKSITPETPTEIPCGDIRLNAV
Chain of dopamine reuptake transporter (DAT) (Q01959 whole entry, species assumed): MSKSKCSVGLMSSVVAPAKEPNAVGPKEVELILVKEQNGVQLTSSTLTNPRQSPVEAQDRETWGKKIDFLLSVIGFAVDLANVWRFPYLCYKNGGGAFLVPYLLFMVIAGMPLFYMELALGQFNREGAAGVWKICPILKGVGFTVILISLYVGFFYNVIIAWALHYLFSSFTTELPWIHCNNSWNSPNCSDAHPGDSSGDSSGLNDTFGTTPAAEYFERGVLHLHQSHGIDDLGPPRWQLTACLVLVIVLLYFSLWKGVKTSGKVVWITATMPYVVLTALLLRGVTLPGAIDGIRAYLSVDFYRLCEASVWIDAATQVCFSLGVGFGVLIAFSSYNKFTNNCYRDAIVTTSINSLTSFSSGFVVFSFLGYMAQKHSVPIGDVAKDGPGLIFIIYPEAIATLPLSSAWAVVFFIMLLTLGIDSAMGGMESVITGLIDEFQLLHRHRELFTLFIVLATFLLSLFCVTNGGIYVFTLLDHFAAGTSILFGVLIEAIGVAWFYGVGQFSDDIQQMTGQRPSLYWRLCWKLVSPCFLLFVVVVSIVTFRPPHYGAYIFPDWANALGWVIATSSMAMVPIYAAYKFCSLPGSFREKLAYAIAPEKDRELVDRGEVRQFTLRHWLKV

c1ccc2cc([C@]34CNC[C@H]3C4)ccc2c1 [centanafadine, (1R,5S)-1-(naphthalen-2-yl)-3-azabicyclo[3.1.0]hexane]
Permeability [1]: highly permeable
Potency towards SERT relative to NET [2]: one-fourteenth
Potency towards DAT relative to NET [3]: one-sixth
Potency towards NET [4]: most potency
